Our source for the TGI and GI50 values is PubChem BioAssay (NCI).

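Five concentrations, 48 hours, 96-well plates. GI50 = concentration required for 50% inhibition of growth. TGI is the concentration that stops growth completely.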 Where only a bound is given, the exact number is not on record here.

A word on the TGI: it is the concentration at which net growth stops. As a reminder, the GI50 is the concentration at which growth is held to half of that of the control.

One assay deals with NCI-H460 lung. Briefly: DTP human tumour cell line panel, 48 h.
Take `N#Cc1c(-c2ccccc2)/c(=C\Nc2ccc(F)cc2)c(=O)n2c1nc1ccccc12`: the TGI is more than 100 µM.

`OCCc1ccsc1-c1sc(-c2cc(CCO)c(-c3sccc3CCO)s2)cc1CCO`: the TGI was found to be 32.5 µM.

Compound `CCOC(=O)c1c(C)nc2c3ccccc3c(C#N)c(C)n12` had a TGI of more than 100 µM.

Turning to `O=c1[nH]c(Nc2nc3ccccc3[nH]2)nc(O)c1-c1ccccc1`, the total growth inhibition concentration (TGI) was more than 100 µM.

For the compound `CCOC(=O)c1cn2c(nc1=O)N[C@H]1CCCC[C@@H]12`, the TGI was more than 100 µM.

The compound `CC1=NS(=O)(=O)c2ccccc2N1` came in with a TGI of more than 100 µM.

The compound `COP(=O)(/C=C/c1cc(C(=O)OCc2ccccc2)n(S(=O)(=O)c2ccccc2)c1)OC` had a concentration for total growth inhibition (TGI) of more than 100 µM.

In turn, `CCN(CCCN(CC)C(=O)Nc1c(C)cccc1C)C(=O)Nc1c(C)cccc1C` returned a concentration for total growth inhibition (TGI) of more than 100 µM.

On to `O=C(O)CCC(=O)OC1N=C(c2ccccc2Cl)c2cc([N+](=O)[O-])ccc2NC1=O` (configuration not stated), for which the TGI is more than 100 µM.

Take `COc1ccc(C2=N/C(=C\c3ccccc3)C(=O)O2)cc1`: the TGI is more than 100 µM.

With `CSc1nsc(-c2ccccc2)[s+]1`, the TGI is more than 100 µM.

As for `Oc1ccc([I+]c2ccccc2)cc1O`, the TGI is more than 100 µM.

The compound `NC1=NCC(CN2CCOCC2)O1` (configuration not stated) gave a TGI of more than 100 µM.

`COc1cccc2c(=O)oc(-c3ccc(C(C)(C)C)cc3)nc12` displayed a TGI of more than 100 µM.

A further assay concerns DU-145 prostate. Briefly: DTP human tumour cell line panel, 48 h.
For the compound `COc1ccc2c(c1)/C(=C\c1c(Cl)nc3sc(C)cn13)C(=O)N2`, the total growth inhibition concentration (TGI) stood at 18.2 µM.

`O=C1c2ccccc2-c2c1c(-c1ccc(F)cc1)nc1ccc3ccccc3c21` came in with a TGI of more than 100 µM.

On to `O=C(/C=C/c1ccc2c(c1)OCO2)CC(=O)C(=O)c1c[nH]c2ccccc12`, for which the TGI was more than 100 µM.

On to `O=c1[nH]c(=O)n(C2OC(CO)C(O)C2O)c2nc(-c3ccc(-c4ccccc4)cc3)cnc12` (configuration not stated), for which the TGI is more than 100 µM.

Compound `O=C1NCCN1/N=C/c1c(Cl)n(-c2ccccc2)c2ccccc12` yielded a TGI of 48.4 µM.

The compound `CCCCCCOc1ccc(C(=O)NOC)cc1` had a TGI of more than 100 µM.

As for `CO[C@H]1/C=C(/C)CCC[C@H](C)[C@H](O)[C@@H](C)C(=O)C(C)(C)[C@@H](O)CC(=O)O[C@@H]1/C(C)=C/c1csc(C)n1`, the GI50 was 0.0259 µM and the concentration for total growth inhibition (TGI) came out at 0.0817 µM.

`CC(=O)Nc1nc(C#N)[nH]c1C#N` had a TGI of more than 100 µM.

Turning to `CC1CCC(C(=O)O)(C(Br)C(=O)O)CC1` (configuration not stated), the TGI was more than 100 µM.

In turn, `COc1cc(NS(C)(=O)=O)ccc1Nc1cc(C)[nH]c2ccc3nccc3c12` had a TGI of more than 100 µM.

`COc1ccc(-c2nc(SCC(=O)N/N=C/c3ccc(N(C)C)cc3)[nH]c2-c2ccc(OC)cc2)cc1` showed a TGI of more than 100 µM.

Turning to `CC1=C[C@@H]2Cc3nc4cc(Cl)ccc4c(N)c3[C@H](C1)C2`, the TGI was 27.3 µM.

Consider `O=[N+]([O-])C(/C=C(\Cl)n1nnc2ccccc21)=C(/Cl)n1nnc2ccccc21`, for which the TGI is more than 100 µM.

Compound `c1c[nH]c(-c2ccc(-c3ccc[nH]3)c3nsnc23)c1` returned a TGI of 98.3 µM.

As to `CS(=O)(=O)OCC(CCl)(CCl)CCl`, the TGI is more than 100 µM.

On to `COc1ccc2c(C)cc(=O)oc2c1OC`, for which the TGI is more than 100 µM.

Turning to `OCCc1ccsc1-c1sc(-c2cc(CCO)c(-c3sccc3CCO)s2)cc1CCO`, the TGI was determined as 32.9 µM. That is a double-digit micromolar value.

As for `Cc1cc2c3c(nc4ccccc42)C(=O)c2ccccc2-c3n1`, the TGI was more than 100 µM.

In the case of `CCOC(=O)c1c(C)nc2c3ccccc3c(C#N)c(C)n12`, the TGI is more than 100 µM.

`O=c1[nH]c(Nc2nc3ccccc3[nH]2)nc(O)c1-c1ccccc1`: the TGI was more than 100 µM.

Compound `CCOC(=O)c1cn2c(nc1=O)N[C@H]1CCCC[C@@H]12` came in with a TGI of more than 100 µM.

In turn, `COP(=O)(/C=C/c1cc(C(=O)OCc2ccccc2)n(S(=O)(=O)c2ccccc2)c1)OC` returned a TGI of more than 100 µM.

As to `CCN(CCCN(CC)C(=O)Nc1c(C)cccc1C)C(=O)Nc1c(C)cccc1C`, the TGI was more than 100 µM.

In the case of `O=C(O)CCC(=O)OC1N=C(c2ccccc2Cl)c2cc([N+](=O)[O-])ccc2NC1=O` (configuration not stated), the TGI was more than 100 µM.

On to `Oc1ccc([I+]c2ccccc2)cc1O`, for which the TGI is more than 100 µM.

Regarding `NC1=NCC(CN2CCOCC2)O1` (configuration not stated), the total growth inhibition concentration (TGI) is more than 100 µM.

`COc1cccc2c(=O)oc(-c3ccc(C(C)(C)C)cc3)nc12` displayed a TGI of more than 100 µM.

The next assay has as its system NCI-H226 lung. Description: DTP human tumour cell line panel, 48 h.
Consider `O=C1c2ccccc2-c2c1c(-c1ccc(F)cc1)nc1ccc3ccccc3c21`, for which the TGI is more than 100 µM.

On to `O=c1[nH]c(=O)n(C2OC(CO)C(O)C2O)c2nc(-c3ccc(-c4ccccc4)cc3)cnc12` (configuration not stated), for which the TGI was more than 100 µM.

The compound `O=C1NCCN1/N=C/c1c(Cl)n(-c2ccccc2)c2ccccc12` registered a TGI of 54 µM. In other words, the double-digit micromolar range.

For the compound `CCCCCCOc1ccc(C(=O)NOC)cc1`, the total growth inhibition concentration (TGI) is more than 100 µM.

Consider `CO[C@H]1/C=C(/C)CCC[C@H](C)[C@H](O)[C@@H](C)C(=O)C(C)(C)[C@@H](O)CC(=O)O[C@@H]1/C(C)=C/c1csc(C)n1`, for which the GI50 was 0.0324 µM and the TGI was more than 100 µM.

Turning to `CC(=O)Nc1nc(C#N)[nH]c1C#N`, the TGI is more than 100 µM.

`CC1CCC(C(=O)O)(C(Br)C(=O)O)CC1` (configuration not stated) showed a TGI of more than 100 µM.

With `COc1cc(NS(C)(=O)=O)ccc1Nc1cc(C)[nH]c2ccc3nccc3c12`, the TGI was more than 100 µM.

Consider `CCOC(=O)Cn1c(=O)c2nc(SC)sc2n(-c2ccccc2)c1=O`, for which the TGI was more than 100 µM.

The compound `CC1=C[C@@H]2Cc3nc4cc(Cl)ccc4c(N)c3[C@H](C1)C2` came in with a TGI of 32.5 µM.

In the case of `O=[N+]([O-])C(/C=C(\Cl)n1nnc2ccccc21)=C(/Cl)n1nnc2ccccc21`, the TGI is more than 100 µM.

For `c1c[nH]c(-c2ccc(-c3ccc[nH]3)c3nsnc23)c1`, the TGI was more than 100 µM.

Compound `CS(=O)(=O)OCC(CCl)(CCl)CCl` had a TGI of more than 100 µM.

As for `N#Cc1c(-c2ccccc2)/c(=C\Nc2ccc(F)cc2)c(=O)n2c1nc1ccccc12`, the TGI was found to be 64.1 µM. This lies in the double-digit micromolar range.

For the compound `COc1ccc2c(C)cc(=O)oc2c1OC`, the TGI is more than 100 µM.

The compound `Cc1cc2c3c(nc4ccccc42)C(=O)c2ccccc2-c3n1` registered a TGI of 67 µM.

`CCOC(=O)c1c(C)nc2c3ccccc3c(C#N)c(C)n12` gave a TGI of more than 100 µM.

`O=c1[nH]c(Nc2nc3ccccc3[nH]2)nc(O)c1-c1ccccc1` returned a TGI of more than 100 µM.

In the case of `CCOC(=O)c1cn2c(nc1=O)N[C@H]1CCCC[C@@H]12`, the TGI is more than 100 µM.

In turn, `CC1=NS(=O)(=O)c2ccccc2N1` yielded a TGI of more than 100 µM.

`CCN(CCCN(CC)C(=O)Nc1c(C)cccc1C)C(=O)Nc1c(C)cccc1C` yielded a concentration for total growth inhibition (TGI) of more than 100 µM.

`COc1ccc(C2=N/C(=C\c3ccccc3)C(=O)O2)cc1` displayed a total growth inhibition concentration (TGI) of 98.1 µM. In other words, the double-digit micromolar range.

With `CSc1nsc(-c2ccccc2)[s+]1`, the TGI was more than 100 µM.

Consider `Oc1ccc([I+]c2ccccc2)cc1O`, for which the TGI was more than 100 µM.
